Measurements from patent US9765105B2, “Macrolide compound” (Pulike Biological Engineering, Inc., priority 2013, dated 2017).

How the values were obtained:
Experiment in all cases: in vitro susceptibility, MIC by mini broth dilution
Format in all cases: cell-based
[1] = tested on: Pasteurella multocida CVCC399; conditions: strain CVCC399
In short: (§1)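 Broth microdilution MIC, NCCLS method: 11-point two-fold DMSO compound series, duplicate rows, well 12 as control. Inoculum from 20 h, 35° C plate cultures, diluted 1:200 in broth.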

[2] = tested on: Actinobacillus pleuropneumoniae CVCC262; conditions: strain CVCC262
In short: as §1

[3] = tested on: Streptococcus equines CVCC556; conditions: strain CVCC556
In short: as §1

Haemophilus parasuis = tested on: Haemophilus parasuis
In short: as §1

[4] = tested on: Staphylococcus aureus CVCC26003; conditions: strain CVCC26003
In short: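 S. aureus CVCC26003 was revived and subcultured twice, 20 h each at 35° C, on solid medium, then diluted 1:200 in CAMHB liquid medium. Compounds received an 11-step two-fold DMSO dilution in parallel duplicate rows. MIC was read by mini broth dilution per NCCLS guidance.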

Row | Compound | MIC values, Pasteurella multocida CVCC399 [1] | MIC values, Actinobacillus pleuropneumoniae CVCC262 [2] | MIC values, Streptococcus equines CVCC556 [3] | MIC values, Haemophilus parasuis (Haemophilus parasuis) | MIC values, Staphylococcus aureus CVCC26003 [4]
1 | CCC1OC(=O)C(C)C(OC2CC(C)(OC)C(O)(CNCc3ccc(C)o3)C(C)O2)C(C)C(OC2OC(C)CC(N(C)C)C2O)C(C)(O)CC(C)NCC(C)C(O)C1(C)O [syzx-78, (2R,3S,4R,5S,8R,10R,11R,12S,13S,14R)-13-[(2,6-dideoxy-3-C-methyl-3-O-methyl-4-C-[(5-methylfurfurylamino)-methyl]-α-L-ribopyranosyl)oxy]-2-ethyl-3,4,10-trihydroxy-3,5,8,10,12,14-hexamethyl-11-[[3,4,6-trideoxy-3-(dimethylamino)-β-D-xylo-hexopyranosy]oxy]-1-oxa-7-azacyclopentadecan-15-one] | 0.5 ug/mi | 2 ug/mi | 0.25 ug/mi | 0.25 ug/mi | 0.25 ug/mi
2 | CC[C@H]1OC(=O)[C@H](C)[C@@H](O[C@H]2C[C@@](C)(OC)[C@](O)(C=NNc3ccc(F)cc3)[C@H](C)O2)[C@H](C)[C@@H](O[C@@H]2O[C@H](C)C[C@H](N(C)C)[C@H]2O)[C@](C)(O)C[C@@H](C)NC[C@H](C)[C@@H](O)[C@]1(C)O [syzx-81, (2R,3S,4R,5S,8R,10R,11R,12S,13S,14R)-13-[(2,6-dideoxy-3-C-methyl-3-O-methyl-4-C-[(4-fluoro-phenylhydrazono)-methyl]-α-L-ribopyranosyl)oxy]-2-ethyl-3,4,10-trihydroxy-3,5,8,10,12,14-hexamethyl-11-[[3,4,6-trideoxy-3-(dimethylamino)-β-D-xylo-hexopyranosy]oxy]-1-oxa-7-azacyclopentadecan-15-one] | 0.25 ug/mi | 2 ug/mi | ≦0.25 ug/mi | ≦0.25 ug/mi | ≦0.25 ug/mi
3 | CC[C@H]1OC(=O)[C@H](C)[C@@H](O[C@H]2C[C@@](C)(OC)[C@](O)(CNOCc3ccccc3)[C@H](C)O2)[C@H](C)[C@@H](O[C@@H]2O[C@H](C)C[C@H](N(C)C)[C@H]2O)[C@](C)(O)C[C@@H](C)NC[C@H](C)[C@@H](O)[C@]1(C)O [syzx-82, (2R,3S,4R,5S,8R,10R,11R,12S,13S,14R)-13-[(2,6-dideoxy-3-C-methyl-3-O-methyl-4-C-[(benzyloxy-amino)-methyl]-α-L-ribopyranosyl)oxy]-2-ethyl-3,4,10-trihydroxy-3,5,8,10,12,14-hexamethyl-11-[[3,4,6-trideoxy-3-(dimethylamino)-β-D-xylo-hexopyranosy]oxy]-1-oxa-7-azacyclopentadecan-15-one] | 1 ug/mi | 16 ug/mi | ≦0.25 ug/mi | ≦0.25 ug/mi | 0.5 ug/mi
4 | CC[C@H]1OC(=O)[C@H](C)[C@@H](O[C@H]2C[C@@](C)(OC)[C@](O)(CNc3ccc(OC)cc3)[C@H](C)O2)[C@H](C)[C@@H](O[C@@H]2O[C@H](C)C[C@H](N(C)C)[C@H]2O)[C@](C)(O)C[C@@H](C)NC[C@H](C)[C@@H](O)[C@]1(C)O [syzx-83, (2R,3S,4R,5S,8R,10R,11R,12S,13S,14R)-13-[(2,6-dideoxy-3-C-methyl-3-O-methyl-4-C-[(p-methoxyphenyl-amino)-methyl]-α-L-ribopyranosyl)oxy]-2-ethyl-3,4,10-trihydroxy-3,5,8,10,12,14-hexamethyl-11-[[3,4,6-trideoxy-3-(dimethylamino)-β-D-xylo-hexopyranosy]oxy]-1-oxa-7-azacyclopentadecan-15-one] | 0.25 ug/mi | 2 ug/mi | 0.5 ug/mi | 0.25 ug/mi | 0.5 ug/mi
5 | CC[C@H]1OC(=O)[C@H](C)[C@@H](O[C@H]2C[C@@](C)(OC)[C@](O)(CNc3ccc(C)c(C)c3)[C@H](C)O2)[C@H](C)[C@@H](O[C@@H]2O[C@H](C)C[C@H](N(C)C)[C@H]2O)[C@](C)(O)C[C@@H](C)NC[C@H](C)[C@@H](O)[C@]1(C)O [syzx-84, (2R,3S,4R,5S,8R,10R,11R,12S,13S,14R)-13-[(2,6-dideoxy-3-C-methyl-3-O-methyl-4-C-[(3,4-dimethylphenyl-amino)-methyl]-α-L-ribopyranosyl)oxy]-2-ethyl-3,4,10-trihydroxy-3,5,8,10,12,14-hexamethyl-11-[[3,4,6-trideoxy-3-(dimethylamino)-β-D-xylo-hexopyranosy]oxy]-1-oxa-7-azacyclopentadecan-15-one] | 0.25 ug/mi | 2 ug/mi | ≦0.25 ug/mi | ≦0.25 ug/mi | ≦0.25 ug/mi
6 | CC[C@H]1OC(=O)[C@H](C)[C@@H](O[C@H]2C[C@@](C)(OC)[C@](O)(CNc3ccc(F)cn3)[C@H](C)O2)[C@H](C)[C@@H](O[C@@H]2O[C@H](C)C[C@H](N(C)C)[C@H]2O)[C@](C)(O)C[C@@H](C)NC[C@H](C)[C@@H](O)[C@]1(C)O [syzx-86, (2R,3S,4R,5S,8R,10R,11R,12S,13S,14R)-13-[(2,6-dideoxy-3-C-methyl-3-O-methyl-4-C-[(5-fluoropyridin-2-yl-amino)-methyl]-α-L-ribopyranosyl)oxy]-2-ethyl-3,4,10-trihydroxy-3,5,8,10,12,14-hexamethyl-11-[[3,4,6-trideoxy-3-(dimethylamino)-β-D-xylo-hexopyranosy]oxy]-1-oxa-7-azacyclopentadecan-15-one] | 0.25 ug/mi | 2 ug/mi | ≦0.25 ug/mi | ≦0.25 ug/mi | ≦0.25 ug/mi
7 | CC[C@H]1OC(=O)[C@H](C)[C@@H](O[C@H]2C[C@@](C)(OC)[C@](O)(CNCCN3CCCC3)[C@H](C)O2)[C@H](C)[C@@H](O[C@@H]2O[C@H](C)C[C@H](N(C)C)[C@H]2O)[C@](C)(O)C[C@@H](C)NC[C@H](C)[C@@H](O)[C@]1(C)O [syzx-90] | 2 ug/mi | 0.5 ug/mi | 0.5 ug/mi | 2 ug/mi | 2 ug/mi
